Nine compounds from patent US20240376094A2, “SELECTIVE BCL-XL PROTAC COMPOUNDS AND METHODS OF USE” (Les Laboratoires Servier, priority 2021, published 2024) can be followed below.

Common to all, as to assay type: cell-based
One assay relates to MOLT-4 cells. The assay is described as follows: MOLT-4 cell viability, CTG assay. The note with it: Homo sapiens, MOLT-4, 48 h. The gist of the method:
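Cells grown in RPMI 1640 with 10% FBS at 37° C, 5% CO2, then exposed to compounds for 48 h (11-point 5-fold dilution, triplicates). ATP measured by CellTiter-Glo luminescence; IC50 from four-parameter fit versus control, mean of ≥2 independent experiments.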

Assay [1] deals with EBC-1 lung cancer cell line. The assay is described as follows: EBC-1 cell proliferation, CellTiter-Glo assay. The note with it: Homo sapiens, 120 h; Ebc-1 cell viability, CTG assay, 5 days of treatment; read-out: CTG 5 day Ebc1 GI50. Put shortly:
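EBC-1 cells seeded at 1000 per well overnight, then exposed to 10-point dilutions (0.508 nM–10 μM final) for 5 days at 37 °C, in triplicate. ATP luminescence by CellTiter-Glo, normalised to untreated wells; GI50 from four-parameter logistic fit, runs valid only with at least one doubling.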
(In general: In ATP-based viability assays light output follows the ATP content of the culture.)

The target in a further assay is T1, Bcl-xL (Homo sapiens, UniProt Q07817).
T1 construct: Measured levels of Bcl-xL protein of HCT116 cells treated with the tested compounds; host or cells: HCT116
T1 sequence (Q07817 whole entry): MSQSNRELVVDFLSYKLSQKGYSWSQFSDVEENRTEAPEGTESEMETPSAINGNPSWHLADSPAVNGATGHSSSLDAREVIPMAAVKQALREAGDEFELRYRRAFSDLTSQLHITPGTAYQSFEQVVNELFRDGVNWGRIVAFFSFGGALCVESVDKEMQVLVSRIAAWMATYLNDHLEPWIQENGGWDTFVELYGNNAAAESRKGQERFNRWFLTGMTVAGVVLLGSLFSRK
The assay is described as follows: HCT116 Bcl-xL degradation, capillary-based immunoassay (WES). The note with it: HCT116, 24 h, 9-point serial dilution. The gist of the method:
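HCT116 cells treated 24 h with compound at 10/100 nM and/or 9-point dilution (quadruplicates), then lysed. Bcl-xL measured by capillary WES immunoassay, normalized to cofilin and expressed as % of untreated cells. DC50 from four-parameter curve fit.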

The target of a further assay is T2, HiBiT-tagged BCL-xL (Homo sapiens, UniProt Q07817).
T2 construct: expressed in transfected cells; host or cells: NCI-H1650 (ATCC No. CRL-5883), engineered HiBiT cell line
T2 sequence (Q07817 whole entry): as above
The assay is described as follows: NCI-H1650 BCL-xL protein levels, Nano-Glo HiBiT Lytic Detection. The following applies: NCI-H1650 expressing HiBiT-tagged BCL-xL, overnight incubation, read-out: Bcl-xl HIBIT NCIH1650 DC50. The gist of the method: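 NCI-H1650 cells expressing HiBiT-tagged BCL-xL (5000/well) were treated overnight at 37° C with 10 concentrations, final 0.508 nM-10 μM, in triplicate. Remaining BCL-xL measured by Nano-Glo HiBiT lytic luminescence, normalized to untreated cells; 50% values by four-parameter logistic fit.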
For orientation: HiBiT is a short tag that completes a luciferase, so light tracks the accessible tagged protein.

The structures appear in SMILES notation.

On to `Cc1c(Nc2nc3ccccc3s2)nnc2c1CCCN2c1ccc(-c2cnn(CC34CC5(C)CC(C)(C3)CC(OCCN(C)CCCCCCCCCCCCCCCOc3ccc6c(c3)C(=O)N(C3CCC(=O)NC3=O)C6=O)(C5)C4)c2C)c(C(=O)O)n1` (stereo not shown) [Example 119, 6-[3-(1,3-benzothiazol-2-ylamino)-4-methyl-6,7-dihydro-5H-pyrido[2,3-c]pyridazin-8-yl]-3-[1-[[3-[2-[15-[2-(2,6-dioxo-3-piperidyl)-1,3-dioxo-isoindolin-5-yl]oxypentadecyl-methyl-amino]ethoxy]-5,7-dimethyl-1-adamantyl]methyl]-5-methyl-pyrazol-4-yl]pyridine-2-carboxylic acid], for which it took 4.78 nM to reach half-maximal inhibition in the assay with MOLT-4 cells (IC50). For the same compound, the GI50 (as a rule, the concentration giving 50% growth inhibition) in assay [1] came out at 69 nM. Also, the DC50 on Bcl-xL was 0.681 nM; at HiBiT-tagged BCL-xL, above 1670 nM.

Take `Cc1ncsc1-c1ccc([C@H](C)NC(=O)[C@@H]2C[C@@H](O)CN2C(=O)[C@@H](NC(=O)CCCCCCCCCCCCCN(C)CCOC23CC4(C)CC(C)(CC(Cn5ncc(-c6ccc(N7CCCc8c7nnc(Nc7nc9ccccc9s7)c8C)nc6C(=O)N(C)C)c5C)(C4)C2)C3)C(C)(C)C)cc1` [Example 148, 6-[3-(1,3-benzothiazol-2-ylamino)-4-methyl-6,7-dihydro-5H-pyrido[2,3-c]pyridazin-8-yl]-3-[1-[[3-[2-[[14-[[(1S)-1-[(2S,4R)-4-hydroxy-2-[[(1S)-1-[4-(4-methylthiazol-5-yl)phenyl]ethyl]carbamoyl]pyrrolidine-1-carbonyl]-2,2-dimethyl-propyl]amino]-14-oxo-tetradecyl]-methyl-amino]ethoxy]-5,7-dimethyl-1-adamantyl]methyl]-5-methyl-pyrazol-4-yl]-N,N-dimethyl-pyridine-2-carboxamide]: the IC50 (commonly the concentration needed to halve the response being measured) with MOLT-4 cells came to 4.51 nM. In assay [1], the GI50 came to 7 nM. The DC50 at Bcl-xL was 1.37 nM; on HiBiT-tagged BCL-xL, 1 nM.

Take `Cc1ncsc1-c1ccc([C@H](C)NC(=O)[C@@H]2C[C@@H](O)CN2C(=O)[C@@H](NC(=O)COCCCCCCCCCCCCCN(C)CCOC23CC4(C)CC(C)(CC(Cn5ncc(-c6ccc(N7CCCc8c7nnc(Nc7nc9ccccc9s7)c8C)nc6C(=O)O)c5C)(C4)C2)C3)C(C)(C)C)cc1` [Example 111, 6-[3-(1,3-benzothiazol-2-ylamino)-4-methyl-6,7-dihydro-5H-pyrido[2,3-c]pyridazin-8-yl]-3-[1-[[3-[2-[13-[2-[[(1S)-1-[(2S,4R)-4-hydroxy-2-[[(1S)-1-[4-(4-methylthiazol-5-yl)phenyl]ethyl]carbamoyl]pyrrolidine-1-carbonyl]-2,2-dimethyl-propyl]amino]-2-oxo-ethoxy]tridecyl-methyl-amino]ethoxy]-5,7-dimethyl-1-adamantyl]methyl]-5-methyl-pyrazol-4-yl]pyridine-2-carboxylic acid]: in the assay with MOLT-4 cells, the IC50 amounted to 2.62 nM. Besides, the GI50 in assay [1] is 41 nM. For the same compound, the DC50 at Bcl-xL came to 0.4 nM; on HiBiT-tagged BCL-xL, 0.5 nM.

`Cc1ncsc1-c1ccc(CNC(=O)[C@@H]2C[C@@H](O)CN2C(=O)[C@@H](NC(=O)C2(F)CC2)C(C)(C)SCCCCCCCCCCCCCCN(C)CCOC23CC4(C)CC(C)(CC(Cn5ncc(-c6ccc(N7CCCc8c7nnc(Nc7nc9ccccc9s7)c8C)nc6C(=O)O)c5C)(C4)C2)C3)cc1` [Example 80, 6-[3-(1,3-benzothiazol-2-ylamino)-4-methyl-6,7-dihydro-5H-pyrido[2,3-c]pyridazin-8-yl]-3-[1-[[3-[2-[14-[(2R)-2-[(1-fluorocyclopropanecarbonyl)amino]-3-[(2S,4R)-4-hydroxy-2-[[4-(4-methylthiazol-5-yl)phenyl]methylcarbamoyl]pyrrolidin-1-yl]-1,1-dimethyl-3-oxo-propyl]sulfanyltetradecyl-methyl-amino]ethoxy]-5,7-dimethyl-1-adamantyl]methyl]-5-methyl-pyrazol-4-yl]pyridine-2-carboxylic acid]: in the assay on MOLT-4 cells, the IC50 worked out at 6.11 nM. Further, the GI50 in assay [1] was 92 nM. The values for the DC50 on Bcl-xL and at HiBiT-tagged BCL-xL were 3.57 nM and above 1670 nM, respectively.

`Cc1ncsc1-c1ccc([C@H](C)NC(=O)[C@@H]2C[C@@H](O)CN2C(=O)[C@@H](NC(=O)CCCCCCCCCN2CCN(CC#Cc3ccc(OCCCc4sc(N5CCCc6c5nnc(Nc5nc7ccccc7s5)c6C)nc4C(=O)O)c(F)c3)CC2)C(C)(C)C)cc1` [Example 134, 2-[3-(1,3-benzothiazol-2-ylamino)-4-methyl-6,7-dihydro-5H-pyrido[2,3-c]pyridazin-8-yl]-5-[3-[2-fluoro-4-[3-[4-[10-[[(1S)-1-[(2S,4R)-4-hydroxy-2-[[(1S)-1-[4-(4-methylthiazol-5-yl)phenyl]ethyl]carbamoyl]pyrrolidine-1-carbonyl]-2,2-dimethyl-propyl]amino]-10-oxo-decyl]piperazin-1-yl]prop-1-ynyl]phenoxy]propyl]thiazole-4-carboxylic acid]: half-maximal inhibition in the assay with MOLT-4 cells (IC50) was put at 7.19 nM. In assay [1], the GI50 turned out to be 2 nM. For the same compound, the DC50 at Bcl-xL was 0.564 nM; on HiBiT-tagged BCL-xL, 1 nM.

As for `Cc1ncsc1-c1ccc([C@H](C)NC(=O)[C@@H]2C[C@@H](O)CN2C(=O)[C@@H](NC(=O)CCCCCCNC(=O)c2nc(N3CCCc4c3nnc(Nc3nc5ccccc5s3)c4C)ccc2-c2cnn(CC34CC5(C)CC(C)(C3)CC(OCCN3CCCC3)(C5)C4)c2C)C(C)(C)C)cc1` [Example 120, 6-[3-(1,3-benzothiazol-2-ylamino)-4-methyl-6,7-dihydro-5H-pyrido[2,3-c]pyridazin-8-yl]-3-[1-[[3,5-dimethyl-7-(2-pyrrolidin-1-ylethoxy)-1-adamantyl]methyl]-5-methyl-pyrazol-4-yl]-N-[7-[[(1S)-1-[(2S,4R)-4-hydroxy-2-[[(1S)-1-[4-(4-methylthiazol-5-yl)phenyl]ethyl]carbamoyl]pyrrolidine-1-carbonyl]-2,2-dimethyl-propyl]amino]-7-oxo-heptyl]pyridine-2-carboxamide], half-maximal inhibition with MOLT-4 cells (IC50) required 7.29 nM. The 50% growth inhibitory concentration (GI50) in assay [1] amounted to 119 nM. The DC50 on Bcl-xL is 1.68 nM; on HiBiT-tagged BCL-xL, 1 nM.

In the case of `Cc1cc(N(CCCCN(C)C(=O)CCCCCCCCCC(=O)N[C@H](C(=O)N2C[C@H](O)C[C@H]2C(=O)N[C@@H](C)c2ccc(-c3scnc3C)cc2)C(C)(C)C)c2ccc(-c3cnn(CC45CC6(C)CC(C)(C4)CC(OCCN(C)C)(C6)C5)c3C)c(C(=O)O)n2)nnc1Nc1nc2ccccc2s1` [Example 114, 6-[[6-(1,3-benzothiazol-2-ylamino)-5-methyl-pyridazin-3-yl]-[4-[[11-[[(1S)-1-[(2S,4R)-4-hydroxy-2-[[(1S)-1-[4-(4-methylthiazol-5-yl)phenyl]ethyl]carbamoyl]pyrrolidine-1-carbonyl]-2,2-dimethyl-propyl]amino]-11-oxo-undecanoyl]-methyl-amino]butyl]amino]-3-[1-[[3-[2-(dimethylamino)ethoxy]-5,7-dimethyl-1-adamantyl]methyl]-5-methyl-pyrazol-4-yl]pyridine-2-carboxylic acid], the 50% inhibitory concentration (IC50) in the assay with MOLT-4 cells is 24.8 nM. The GI50 in assay [1] worked out at 1720 nM. Further, the DC50 on Bcl-xL amounted to 2.67 nM; on HiBiT-tagged BCL-xL, 1 nM.

Turning to `Cc1ncsc1-c1ccc([C@H](C)NC(=O)[C@@H]2C[C@@H](O)CN2C(=O)[C@@H](NC(=O)CCCCCCCCCCCCCN(C)CCOC23CC4(C)CC(C)(CC(Cn5ncc(-c6ccc(N7CCCc8c7nnc(Nc7nc9ccccc9s7)c8C)nc6CO)c5C)(C4)C2)C3)C(C)(C)C)cc1` [Example 155, (2S,4R)-1-[(2S)-2-[14-[2-[[3-[[4-[6-[3-(1,3-benzothiazol-2-ylamino)-4-methyl-6,7-dihydro-5H-pyrido[2,3-c]pyridazin-8-yl]-2-(hydroxymethyl)-3-pyridyl]-5-methyl-pyrazol-1-yl]methyl]-5,7-dimethyl-1-adamantyl]oxy]ethyl-methyl-amino]tetradecanoylamino]-3,3-dimethyl-butanoyl]-4-hydroxy-N-[(1S)-1-[4-(4-methylthiazol-5-yl)phenyl]ethyl]pyrrolidine-2-carboxamide], the IC50 in the assay with MOLT-4 cells is 22.1 nM. The GI50 in assay [1] amounted to 431 nM. In addition, at HiBiT-tagged BCL-xL, the DC50 was above 1670 nM.

Regarding `Cc1cc(N(CCCCN(C)C(=O)CCCCCCCCCCC(=O)N[C@H](C(=O)N2C[C@H](O)C[C@H]2C(=O)N[C@@H](C)c2ccc(-c3scnc3C)cc2)C(C)(C)C)c2ccc(-c3cnn(CC45CC6(C)CC(C)(C4)CC(OCCN(C)C)(C6)C5)c3C)c(C(=O)N(C)C)n2)nnc1Nc1nc2ccccc2s1` [Example 128, N′-[4-[[6-(1,3-benzothiazol-2-ylamino)-5-methyl-pyridazin-3-yl]-[5-[1-[[3-[2-(dimethylamino)ethoxy]-5,7-dimethyl-1-adamantyl]methyl]-5-methyl-pyrazol-4-yl]-6-(dimethylcarbamoyl)-2-pyridyl]amino]butyl]-N-[(1S)-1-[(2S,4R)-4-hydroxy-2-[[(1S)-1-[4-(4-methylthiazol-5-yl)phenyl]ethyl]carbamoyl]pyrrolidine-1-carbonyl]-2,2-dimethyl-propyl]-N′-methyl-dodecanediamide], the IC50 in the assay with MOLT-4 cells was determined as 67 nM. In addition, in assay [1], the GI50 is 869 nM. Also, the DC50 at HiBiT-tagged BCL-xL is 18 nM.
